Measurements taken from US20040014972A1, “Arylpiperazine derivatives and their use as psychotropic agents” (priority 2000, published 2004).

Compound: Cl.Cl.O=C(CCCN1CCN(c2cccc3[nH]ccc23)CC1)c1ccc(F)cc1
- melting point: 233 to 234 °C

Compound: O=C(O)/C=C/C(=O)O.OC(CCCN1CCN(c2cccc3cccnc23)CC1)c1ccc(F)cc1 (stereo not drawn)
- melting point: 145 to 146 °C

Compound: Cl.Cl.Cl.O.O.O=C(CCCN1CCN(c2cccc3cccnc23)CC1)c1ccc(F)cc1 (hydrate or solvate)
- melting point: 119 to 120 °C
